#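 Results reflect a 48-hour exposure of cells in 96-well plates to compound at five concentrations. At the GI50, growth is halved.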 Activity calls are given as the source filed them. Cut-off read from the data, not from the text of the source: active = GI50 up to about 1.1 µM and inactive = higher.
# What was measured:
# Test in all cases: NCI-60 cell line screen, 48 h
# 786-0 = system: 786-0
# A498 = system: A498
# A549 = system: A549
# ACHN = system: ACHN
# CAKI-1 = system: CAKI-1
# CCRF-CEM = system: CCRF-CEM
# COLO 205 = system: COLO 205
# DLD-1 = system: DLD-1
# DMS-114 = system: DMS-114
# DMS-273 = system: DMS-273
# EKVX = system: EKVX
# HCC 2998 = system: HCC 2998
# HCT-15 = system: HCT-15
# HL-60 = system: HL-60
# HOP-92 = system: HOP-92
# HT-29 = system: HT-29
# IGROV-1 = system: IGROV-1
# K562 = system: K562
# KM-20L2 = system: KM-20L2
# KM12 = system: KM12
# LOX IMVI = system: LOX IMVI
# LXFL 529 = system: LXFL 529
# M14 = system: M14
# M19-MEL = system: M19-MEL
# MOLT-4 = system: MOLT-4
# Malme-3M = system: Malme-3M
# NCI-H226 = system: NCI-H226
# NCI-H23 = system: NCI-H23
# NCI-H460 = system: NCI-H460
# NCI-H522 = system: NCI-H522
# OVCAR-3 = system: OVCAR-3
# OVCAR-4 = system: OVCAR-4
# OVCAR-5 = system: OVCAR-5
# OVCAR-8 = system: OVCAR-8
# RPMI-8226 = system: RPMI-8226
# RXF 393 = system: RXF 393
# SF-268 = system: SF-268
# SF-295 = system: SF-295
# SF-539 = system: SF-539
# SK-MEL-28 = system: SK-MEL-28
# SK-MEL-2 = system: SK-MEL-2
# SK-MEL-5 = system: SK-MEL-5
# SK-OV-3 = system: SK-OV-3
# SN12C = system: SN12C
# SNB-19 = system: SNB-19
# SNB-75 = system: SNB-75
# SNB-78 = system: SNB-78
# SW-620 = system: SW-620
# TK-10 = system: TK-10
# UACC-257 = system: UACC-257
# UACC-62 = system: UACC-62
# UO-31 = system: UO-31
# XF498 = system: XF498
# HCT-116 = system: HCT-116
# HOP-18 = system: HOP-18
# HOP-62 = system: HOP-62
# SR = system: SR
# U-251 = system: U-251
smiles,measurement,setting,value
Cc1ccc(C(=O)C(C2=Nc3nnc(N)n3C2=O)C2=Nc3nnc(N)n3C2=O)cc1,GI50,786-0,> 100 µM (inactive)
same,GI50,A498,> 100 µM (inactive)
same,GI50,A549,> 100 µM (inactive)
same,GI50,ACHN,> 100 µM (inactive)
same,GI50,CAKI-1,> 100 µM (inactive)
same,GI50,CCRF-CEM,> 100 µM (inactive)
same,GI50,COLO 205,> 100 µM (inactive)
same,GI50,DLD-1,> 100 µM (inactive)
same,GI50,DMS-114,> 100 µM (inactive)
same,GI50,DMS-273,> 100 µM (inactive)
same,GI50,EKVX,> 100 µM (inactive)
same,GI50,HCC 2998,> 100 µM (inactive)
same,GI50,HCT-15,> 100 µM
same,GI50,HL-60,> 100 µM (inactive)
same,GI50,HOP-92,> 100 µM (inactive)
same,GI50,HT-29,> 100 µM (inactive)
same,GI50,IGROV-1,> 100 µM (inactive)
same,GI50,K562,> 100 µM (inactive)
same,GI50,KM-20L2,> 100 µM (inactive)
same,GI50,KM12,> 100 µM (inactive)
same,GI50,LOX IMVI,> 100 µM (inactive)
same,GI50,LXFL 529,> 100 µM (inactive)
same,GI50,M14,> 100 µM (inactive)
same,GI50,M19-MEL,> 100 µM (inactive)
same,GI50,MOLT-4,> 100 µM (inactive)
same,GI50,Malme-3M,> 100 µM (inactive)
same,GI50,NCI-H226,> 100 µM (inactive)
same,GI50,NCI-H23,> 100 µM (inactive)
same,GI50,NCI-H460,> 100 µM (inactive)
same,GI50,NCI-H522,> 100 µM (inactive)
same,GI50,OVCAR-3,> 100 µM (inactive)
same,GI50,OVCAR-4,> 100 µM (inactive)
same,GI50,OVCAR-5,> 100 µM (inactive)
same,GI50,OVCAR-8,> 100 µM (inactive)
same,GI50,RPMI-8226,> 100 µM (inactive)
same,GI50,RXF 393,> 100 µM (inactive)
same,GI50,SF-268,> 100 µM (inactive)
same,GI50,SF-295,> 100 µM (inactive)
same,GI50,SF-539,> 100 µM (inactive)
same,GI50,SK-MEL-28,> 100 µM (inactive)
same,GI50,SK-MEL-2,> 100 µM (inactive)
same,GI50,SK-MEL-5,> 100 µM (inactive)
same,GI50,SK-OV-3,> 100 µM (inactive)
same,GI50,SN12C,> 100 µM (inactive)
same,GI50,SNB-19,> 100 µM (inactive)
same,GI50,SNB-75,> 100 µM (inactive)
same,GI50,SNB-78,> 100 µM (inactive)
same,GI50,SW-620,> 100 µM (inactive)
same,GI50,TK-10,> 100 µM (inactive)
same,GI50,UACC-257,> 100 µM (inactive)
same,GI50,UACC-62,> 100 µM (inactive)
same,GI50,UO-31,> 100 µM (inactive)
same,GI50,XF498,> 100 µM (inactive)
CC(=O)Nc1ccc(-c2nnc(SCC(=O)Nc3ccccc3C)o2)cc1,GI50,786-0,> 100 µM (inactive)
same,GI50,A549,> 100 µM (inactive)
same,GI50,ACHN,> 100 µM (inactive)
same,GI50,CCRF-CEM,61.7 µM (inactive)
same,GI50,COLO 205,> 100 µM (inactive)
same,GI50,DLD-1,49.8 µM (inactive)
same,GI50,DMS-114,> 100 µM (inactive)
same,GI50,DMS-273,35.4 µM (inactive)
same,GI50,HCT-116,15.6 µM (inactive)
same,GI50,HCT-15,80.2 µM
same,GI50,HL-60,57.9 µM (inactive)
same,GI50,HOP-18,> 100 µM (inactive)
same,GI50,HOP-62,> 100 µM (inactive)
same,GI50,HOP-92,39.4 µM (inactive)
same,GI50,HT-29,38 µM (inactive)
same,GI50,IGROV-1,67 µM (inactive)
same,GI50,K562,82.6 µM (inactive)
same,GI50,KM-20L2,69.3 µM (inactive)
same,GI50,KM12,44.7 µM (inactive)
same,GI50,LOX IMVI,63 µM (inactive)
same,GI50,LXFL 529,33.3 µM (inactive)
same,GI50,M14,64.9 µM (inactive)
same,GI50,M19-MEL,70.1 µM (inactive)
same,GI50,MOLT-4,51.9 µM (inactive)
same,GI50,Malme-3M,> 100 µM (inactive)
same,GI50,NCI-H226,> 100 µM (inactive)
same,GI50,NCI-H23,> 100 µM (inactive)
same,GI50,NCI-H460,96.8 µM (inactive)
same,GI50,NCI-H522,58.3 µM (inactive)
same,GI50,OVCAR-3,74.5 µM (inactive)
same,GI50,OVCAR-4,> 100 µM (inactive)
same,GI50,OVCAR-5,> 100 µM (inactive)
same,GI50,OVCAR-8,> 100 µM (inactive)
same,GI50,RPMI-8226,46.3 µM (inactive)
same,GI50,RXF 393,65.3 µM (inactive)
same,GI50,SF-268,> 100 µM (inactive)
same,GI50,SF-295,89.7 µM (inactive)
same,GI50,SF-539,> 100 µM (inactive)
same,GI50,SK-MEL-28,> 100 µM (inactive)
same,GI50,SK-MEL-2,> 100 µM (inactive)
same,GI50,SK-MEL-5,93.1 µM (inactive)
same,GI50,SK-OV-3,> 100 µM (inactive)
same,GI50,SN12C,> 100 µM (inactive)
same,GI50,SNB-75,> 100 µM (inactive)
same,GI50,SNB-78,47 µM (inactive)
same,GI50,SR,55.5 µM (inactive)
same,GI50,SW-620,> 100 µM (inactive)
same,GI50,TK-10,> 100 µM (inactive)
same,GI50,U-251,66.7 µM (inactive)
same,GI50,UACC-257,> 100 µM (inactive)
same,GI50,UACC-62,> 100 µM (inactive)
same,GI50,UO-31,52 µM (inactive)
